Legend:
[1] = target: T1, CXCR3-PK2 (Homo sapiens, UniProt P49682); test: β-arrestin 2 recruitment assay (PathHunter, DiscoveRx), CXCR3-PK2 construct; type: cell-based; settings: for Emax: % of CXCL11 mediated effect, read-out: CXCR3-PK2 efficacy (%) (converted); for Emax / CXCR3-PK2 pEC50 ± SEM: CXCR3-PK2; for CXCR3-PK2 pEC50 ± SEM: HEK293-T cells, PathHunter
T1 construct: expressed in transfected cells
T1 sequence (P49682 1-368): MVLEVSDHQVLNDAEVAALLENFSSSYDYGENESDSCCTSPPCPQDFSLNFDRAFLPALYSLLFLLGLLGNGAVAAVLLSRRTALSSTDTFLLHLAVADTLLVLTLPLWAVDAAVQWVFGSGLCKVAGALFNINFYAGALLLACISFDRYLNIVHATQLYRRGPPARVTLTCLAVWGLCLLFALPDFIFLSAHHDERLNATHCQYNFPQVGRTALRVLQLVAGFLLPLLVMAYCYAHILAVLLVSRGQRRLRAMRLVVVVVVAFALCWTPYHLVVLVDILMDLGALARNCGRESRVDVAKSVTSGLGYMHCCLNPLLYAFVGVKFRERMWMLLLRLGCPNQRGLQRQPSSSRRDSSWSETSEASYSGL
Experimental: (§1) β-arrestin 2 recruitment assay: The measurement of β-arrestin recruitment was performed utilizing the PathHunter assay purchased from DiscoveRx (DiscoveRx, Birmingham, U.K.) according to the manufacturer's protocol. HEK293 cells stably expressing β-gal enzyme acceptor were transiently transfected with the ProLink (PK1) tagged wildtype CXCR3 receptor using the TransIT-293 transfection reagent from Mirus (purchased from MoBiTec, Goettingen, Germany). The assay was carried out in 384-well plates containing 2000 cells in 20 µL. After incubation at 37°C (5% CO2, 95% relative humidity) overnight, various concentrations of test compounds or CXCL11 (prepared in PBS, pH 7.4, containing 0.20% BSA) were added and the incubation continued for 4 h. Detection mix was then added and incubated for further 60 min at room temperature. Chemiluminescence was determined with a microplate reader Clariostar (BMG labtech, Ortenberg, Germany).
(§2) The ability of the novel ligands according to the present invention to induce CXCR3-mediated β-arrestin 2 recruitment was investigated in the assay system PathHunter (DiscoveRx), which detects the recruitment of β-amestin 2 to the activated receptor using β-galactosidase (β-gal) enzyme fragment complementation. The inventors used two different ProLink tags, ProLink1 (PK1) and ProLink2 (PK2), of which PK2 has higher affinity for the enzyme acceptor to detect weak protein-protein interactions. The CXCR3-PK2 construct is readily able to detect the differences in the propensity of CXCL11 and CXCL10 to induce β-arrestin 2 recruitment at CXCR3. […] Table 3. Ability of the 46/VUF10661 based positive allosteric modulators to activate the CXCR3 as measured in the β-arrestin 2 recruitment assay (PathHunter, DiscoveRx).[a]
To investigate the efficacy of identified partial agonists in the assay format, the inventors used the CXCR3-PK2 construct, which is characterized by higher sensitivity to detect β-arrestin 2 recruitment. The compounds which appeared as weak partial agonists under CXCR3-PK1 conditions appeared as strong partial agonists under CXCR3-PK2 conditions with the efficacy increased up to 80% (Table 4). FAUC1036 reached the efficacy of 66%. […] Table 4. Ability of the compound 5 based positive allosteric modulators to activate the CXCR3 as measured in the β-arrestin 2 recruitment assay (PathHunter, DiscoveRx).[a]

[2] = target: T2, CXCR3 (Homo sapiens, UniProt P49682); test: [35S]GTPγS incorporation assay; type: biochemical; settings: for Emax: read-out: CXCR3 Efficacy (%) ± SEM; for CXCR3 pEC50 ± SEM: mean of three experiments in triplicate
T2 construct: expressed in transfected cells; host or cells: HEK293 / HEK293T cells, stably transfected; membrane preparations
T2 sequence (P49682 1-368): T1 sequence (P49682 1-368)
Experimental: Membrane preparation for allosteric radioligand RAMX3 displacement and [^35S]GTPγS incorporation assays: The human embryonic kidney (HEK) cells stably expressing the human CXCR3 receptor were cultured in 150-mm cell culture plates in DMEM/F-12 supplemented with 10% fetal bovine serum (FBS), 2 mM L-glutamine, 1% penicillin-streptomycin, 300 µgmL^-1 Zeocin and incubated at 37 °C in a humid atmosphere with 5% CO2. At 100% confluency cells were washed with PBS twice, treated with Tris EDTA buffer (10 mM Tris, 0.5 mM EDTA, 5 mM KCl, 140 mM NaCl, pH 7.4), and harvested using a cell scraper. Cells were pelleted at 1100×g for 8 min at 4 °C, resuspended in Tris-EDTA-MgCl2 buffer (50mM Tris, 5 mM EDTA, 1.5 mM CaCl2, 5 mM MgCl2, 5 mM KCl, 120 mM NaCl, pH 7.4) and followed by lysis with an Ultra-Turrax. After centrifugation at 50,000•g, at 4°C for 18 min the membranes were resuspended in the binding buffer (50 mM Tris, 1 mM EDTA, 5 mM MgCl2 and subsequently homogenized with a glass-Teflon homogenizer (20 strokes). The homogenized membranes were shock-frozen in liquid nitrogen and stored at -80°C. The protein concentration was determined with the Lowry method with bovine serum albumin used as a standard.^35
[^35S]GTPγS incorporation assay: The [^35S]GTPγS incorporation assay was performed on membrane preparations of stably transfected HEK293 cells that expressed the CXCR3 receptor. The assay was carried out in 96-well plates at the final volume of 200 µL. The incubation buffer contained 20 mM HEPES, 10 mM MgCl2•6H20,100 mM NaCl and 100 mg/L saponin (pH 7.4). Membranes (30 µgmL^-1 of membrane protein), various concentrations of test compound and CXCL11, and 1 µM GDP were preincubated in the absence of [^35S]GTPγS for 30 min at 37 °C. After the addition of 0.10 nM [^35S]GTPγS membranes were incubated for additional 30 min at 37 °C. Incubation was terminated by filtration through Whatman GF/B filters soaked with ice cold PBS. The filter-bound radioactivity was measured as described above. Three to four experiments per compound were performed with each concentration in triplicate.
The activation of G proteins was explored in terms of CXCR3 mediated [^35S]GTPγS incorporation. In the [^35S]GTPγS incorporation assay the membrane preparations of HEK293T cells stably expressing CXCR3 were used. The activation of G proteins was monitored as the incorporation of [^35S]GTPγS and thus increase in the incorporated radioactivity. The potency and efficacy of the novel compounds was first compared to the reference compound 46/VUF10661. […] Table 1. The ability of the 46/VUF10661 based positive allosteric modulators to activate CXCR3 as measured in the [35S]GTPγS incorporation assay.[a]

[3] = target: T3, CXCR3-PK1 (Homo sapiens, UniProt P49682); test: β-arrestin 2 recruitment assay (PathHunter, DiscoveRx), CXCR3-PK1 construct; type: cell-based; settings: CXCR3-PK1; for Emax: % of CXCL11 mediated effect, read-out: CXCR3-PK1 efficacy (%) (converted); for CXCR3-PK1 pEC50 ± SEM: HEK293-T cells, PathHunter, two to three experiments in triplicate
T3 construct: expressed in transfected cells; host or cells: HEK293 cells stably expressing beta-gal enzyme acceptor (PathHunter, DiscoveRx), transiently transfected
T3 sequence (P49682 1-368): T1 sequence (P49682 1-368)
Experimental: as §1, §2

[4] = tested on: activated T-cells; settings: cited from earlier work
[5] = % of CXCL11 mediated effect, membrane preparations of HEK293T stably expressing CXCR3
[6] = membrane preparations of HEK293T stably expressing CXCR3

Row | Emax [1] [%] | CXCR3-PK2 pEC50 ± SEM [1] | Emax [2, 5] [%] | CXCR3 pEC50 ± SEM [2, 6] | Emax [3] [%] | CXCR3-PK1 pEC50 ± SEM [3] | β-arrestin 2 recruitment agonism using PK2 tag (result in words) [1] | CXCR3 Efficacy (%) ± SEM [2, 5] | SMILES | CXCR3 mediated G protein activation (result in words) ([2]; [35S]GTPγS incorporation) | influence on CXCL11 induced migration in activated T-cells [4]
1 | 30 | 7.23±0.69 | 33 ± 7 | 5.97±0.34 | ~36 | 6.63±0.17 | – | – | CC(C)(C)OC(=O)NCCCC[C@@H](NC(=O)[C@@H]1Cc2ccccc2CN1C(=O)CCC(=O)c1ccccc1)C(=O)NCC(c1ccccc1)c1ccccc1 [Compound 45, Tert-butyl ((R)-6-((2,2-diphenylethyl)amino)-6-oxo-5-((S)-2-(4-oxo-4-phenylbutanoyl)-1,2,3,4-tetrahydroisoquinoline-3-carboxamido)hexyl)carbamate] | – | –
2 | 198 | 6.12±0.11 | 85 ± 5 | 5.94±0.09 | 108 | 5.96±0.08 | – | – | NCCCC[C@@H](NC(=O)[C@@H]1Cc2ccccc2CN1C(=O)CCC(=O)c1ccccc1)C(=O)NCC(c1ccccc1)c1ccccc1.O=C(O)C(F)(F)F [Compound 47, (R)-6-((2,2-diphenylethyl)amino)-6-oxo-5-((S)-2-(4-oxo-4-phenylbutanoyl)-1,2,3,4-tetrahydroisoquinoline-3-carboxamido)hexan-1-aminium 2,2,2-trifluoroacetate] | – | –

The next lines start with the molecule.

Row | SMILES | Emax [1] [%] | CXCR3-PK2 pEC50 ± SEM [1] | Emax [2, 5] [%] | CXCR3 pEC50 ± SEM [2, 6] | Emax [3] [%] | CXCR3-PK1 pEC50 ± SEM [3] | β-arrestin 2 recruitment agonism using PK2 tag (result in words) [1] | CXCR3 Efficacy (%) ± SEM [2, 5] | CXCR3 mediated G protein activation (result in words) ([2]; [35S]GTPγS incorporation) | influence on CXCL11 induced migration in activated T-cells [4]
3 | N[C@@H](CCCCNC(=O)[C@@H]1Cc2ccccc2CN1)C(=O)NCC(c1ccccc1)c1ccccc1.O=C(O)C(F)(F)F.O=C(O)C(F)(F)F [Compound 28, (S)-3-(((S)-5-ammonio-6-((2,2-diphenylethyl)amino)-6-oxohexyl)carbamoyl)-1,2,3,4-tetrahydroisoquinolin-2-ium 2,2,2-trifluoroacetate] | 85 | 6.55±0.26 | 40 ± 7 | 5.65±0.23 | 14 | 6.80±0.45 | – | – | – | –
4 | CC(C)(C)OC(=O)N[C@H](CCCCNC(=O)[C@@H]1Cc2ccccc2CN1C(=O)CCC(=O)c1ccccc1)C(=O)NCC(c1ccccc1)c1ccccc1 [Compound 34, Tert-butyl ((R)-1-((2,2-diphenylethyl)amino)-1-oxo-6-((S)-2-(4-oxo-4-phenylbutanoyl)-1,2,3,4-tetrahydroisoquinoline-3-carboxamido)hexan-2-yl)carbamate] | 88 | 6.86±0.19 | – | No effect | 16 | 6.95±0.50 | reached the levels of full agonism | No effect | failed to induce CXCR3 mediated G protein activation | –
5 | N[C@H](CCCCNC(=O)[C@@H]1Cc2ccccc2CN1C(=O)CCC(=O)c1ccccc1)C(=O)NCC(c1ccccc1)c1ccccc1.O=C(O)C(F)(F)F [Compound 35, (R)-1-((2,2-diphenylethyl)amino)-1-oxo-6-((S)-2-(4-oxo-4-phenylbutanoyl)-1,2,3,4-tetrahydroisoquinoline-3-carboxamido)hexan-2-aminium 2,2,2-trifluoroacetate] | 79 | 6.52±0.43 | 25 ± 4 | 8.01±0.31 | 28 | 7.16±0.33 | – | – | – | –
6 | NC(N)=NCCC[C@H](NC(=O)[C@@H]1Cc2ccccc2CN1C(=O)CCC(=O)c1ccccc1)C(=O)NCC1CCCCC1 [PS372424] | – | – | – | – | – | – | – | – | – | found to antagonize CXCL11 induced migration
